Source: ChEMBL document CHEMBL1148245 (Bioorg Med Chem Lett, 2004)

Tests used:
[1] = target: T1, 5-hydroxytryptamine receptor 1A (Homo sapiens, UniProt P08908); experiment: In vitro binding affinity against 5-hydroxytryptamine 1A receptor using [3H]8-OH-DPAT in human CYP3A4 assay
T1 sequence (P08908 whole entry): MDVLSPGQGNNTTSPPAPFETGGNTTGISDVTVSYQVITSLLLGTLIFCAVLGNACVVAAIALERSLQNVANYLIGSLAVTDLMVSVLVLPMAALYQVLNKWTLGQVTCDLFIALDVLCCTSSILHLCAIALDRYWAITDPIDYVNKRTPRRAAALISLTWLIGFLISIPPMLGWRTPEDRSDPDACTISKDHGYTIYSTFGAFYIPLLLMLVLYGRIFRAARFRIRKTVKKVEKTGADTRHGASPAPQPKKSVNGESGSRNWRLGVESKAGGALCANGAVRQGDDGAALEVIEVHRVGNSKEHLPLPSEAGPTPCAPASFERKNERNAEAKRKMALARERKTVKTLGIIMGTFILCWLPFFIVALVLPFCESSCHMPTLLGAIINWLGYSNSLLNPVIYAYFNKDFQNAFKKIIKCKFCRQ

[2] = test system: CYP3A4; experiment: CYP3A4 metabolism half-life (t1/2); conditions: human

| IC50 [1] | half-life [2] | Structure (SMILES) |
| --- | --- | --- |
| 460 nM | 5.5 min | O=C1CC2(CCCC2)CC(=O)N1CCCCN1CCN(c2cnccn2)CC1 |
| 840 nM | 10.2 min | O=C1CC2(CCCC2)CC(=O)N1CCC(O)CN1CCN(c2ncccn2)CC1 (stereo unspecified) |
| 2 nM | 5.1 min | COc1ccccc1N1CCN(CCCCN2C(=O)CC3(CCCC3)CC2=O)CC1 |
| 12 nM | 7.8 min | COc1ccccc1N1CCN(CC(O)CCN2C(=O)CC3(CCCC3)CC2=O)CC1 (stereo unspecified) |
| – | 30.3 min | CC1(C)CC(=O)N(CCCCN2CCN(c3ncccn3)CC2)C(=O)C1 [GEPIRONE] |
| 46 nM | 14.8 min | CC(CCCN1C(=O)CC2(CCCC2)CC1=O)N1CCN(c2ncc(F)cn2)CC1 (stereo unspecified) |
| 710 nM | 2.9 min | CC(C)(CCN1C(=O)CC2(CCCC2)CC1=O)CN1CCN(c2ncccn2)CC1 |
| 69 nM | 3.8 min | O=C1CC2(CCCC2)CC(=O)N1CCC(O)CN1CCN(c2ccc(F)cc2)CC1 (stereo unspecified) |
| 60 nM | 26.8 min | O=C1c2ccccc2C(=O)N1CCCCN1CCN(c2ncccn2)CC1 |
| 64 nM | 3.2 min | O=C1CC2(CCCC2)CC(=O)N1CCCCN1CCN(c2ccc(F)cc2)CC1 |
| 99 nM | 2.4 min | CC(CCCN1C(=O)CC2(CCCC2)CC1=O)N1CCN(c2ccc(F)cc2)CC1 (stereo unspecified) |
| 87 nM | 40.1 min | CC(CCCN1C(=O)CC(C)(C)CC1=O)N1CCN(c2ncc(F)cn2)CC1 (stereo unspecified) |

Continued, compound first:

| Structure (SMILES) | IC50 [1] | half-life [2] |
| --- | --- | --- |
| CC1(C)CC(=O)N(CCCCN2CCN(c3ncc(F)cn3)CC2)C(=O)C1 | 205 nM | 78.3 min |
| CC(O)(CCN1C(=O)CC2(CCCC2)CC1=O)CN1CCN(c2ncccn2)CC1 (stereo unspecified) | 1460 nM | 8.6 min |
| O=C1CC2(CCCC2)CC(=O)N1CCC(O)CN1CCN(c2cnccn2)CC1 (stereo unspecified) | > 1000 nM | 9.6 min |
| COc1ccc(N2CCN(CCCCN3C(=O)CC4(CCCC4)CC3=O)CC2)cc1 | 930 nM | 21.1 min |
| O=C1c2ccccc2C(=O)N1CCCCN1CCN(c2ncc(F)cn2)CC1 | 440 nM | 20.4 min |
| O=C1CC2(CCCC2)CC(=O)N1CCCCN1CCN(c2ncc(F)cn2)CC1 | 63 nM | 52.3 min |
| O=C1CC2(CCCC2)CC(=O)N1CCCCN1CCN(c2ccccc2)CC1 | 15 nM | 8 min |
| CC(CCCN1C(=O)CC2(CCCC2)CC1=O)N1CCN(c2ncccn2)CC1 (stereo unspecified) | 4 nM | 3.8 min |
| CC(CCCN1C(=O)c2ccccc2C1=O)N1CCN(c2ncc(F)cn2)CC1 (stereo unspecified) | 210 nM | 18.2 min |
